Test results taken from US20240350649A1, “TREATMENT AND DIAGNOSIS OF IMMUNE DISORDERS RELATING TO ABERRANT IMMUNE CELLS” (Octagon Therapeutics, Inc., priority 2021, published 2024).
Entries after “also recorded” stand apart in the source; their conditions may differ.

Assays:
Assay type in all cases: cell-based
[1] = system: PBMC (granulocytes, monocytes, lymphocytes); experiment: Mixed-cell assay, PBMC composition by flow cytometry (SSC vs CD45); conditions: up to 50 μM; healthy, PV or SLE donor plasma; FIG. 5B
Experimental: (§1) 0.5×10^6 primary cells (purified CD19+ primary B cells (Precision for Medicine, MD) or 0.5×10^6 CD3+ primary T cells (Precision for Medicine, MD Primary PBMCs (Precision for Medicine, MD) from a healthy donor were stimulated with 10% v/v plasma from either a healthy donor, a pemphigus vulgaris (PV) donor, or a systemic lupus erythematosus (SLE) donor for 24 hours at 37 C, 5% CO2. Compound OTG177 was added at 1 μM, 10 μM and 50 μM concentrations with DMSO as a mock treatment. After 24 hours-72 hours of treatment, cells were labeled with anti-CD45 antibody (5 μl/million cells in 100 μl volume, clone HI30, BUV395, Biolegend, CA), anti-CD19 antibody (5 μl per million cells in 100 μl volume, Clone HIB, PE-CF594, Biolegend, CA) anti-CD3 antibody (5 μl/million cells in 100 μl volume, clone SK7, FITC, Biolegend, CA). Propidium (1 μg/ml) was used to select cells based on their viability. The cells were analyzed by multi-colored flow cytometry using an Attune NxT Flow Cytometer (ThermoFisher).
Overall peripheral blood mononuclear cell (PBMC) composition was evaluated by gating side scattering (SSC) versus CD45, a pan leukocyte marker (FIG. 5A). This gating strategy can differentiate different leukocyte populations based on their scattering profiles.

CD19+ primary B cells = experiment: BrdU incorporation proliferation assay, primary B cells stimulated with donor plasma; conditions: OTG177 up to 1000 μM, 72 hours
Experimental: (§2) 0.5×10^6 primary cells (purified CD19+ primary B cells, Precision for Medicine, MD) or 0.5×10^6 CD3+ primary T cells (Precision for Medicine, MD) from a healthy donor were assayed for their rate of proliferation via the BrdU incorporation method (Roche kit 11647229001), following vendor protocols. In brief, BrdU was added to cell culture for 2 hours-12 hours. The cells were dried with hot air ventilation and fixed with saline and ethanol. The incorporated BrdU was measured with an ELISA assay with an anti BrdU antibody (Roche).
(§3) A representative compound according to the disclosure, OTG177 (FIG. 4), was constructed according to the synthetic scheme shown in FIGS. 2A and 2B using the Bait CD10 substrate succinyl-Ala-Ala-Phe- and an antiproliferative Payload RMP. This compound was tested in this proliferation assay as follows: negative selected lymphocytes (either B or T cells) were incubated with different concentration of OTG177 up to 1000 μM with 10% plasma from either a healthy donor or a flaring Pemphigus Vulgaris donor. All conditions had 30 units/ml of heparin to prevent clotting of the plasma. Cells were incubated for 72 hours at 37° C. 5% CO2 and a BrdU incorporation assay was performed with kit (Roche) as described before.

CD3+ primary T cells = experiment: BrdU incorporation proliferation assay, primary T cells stimulated with donor plasma; conditions: OTG177 up to 1000 μM, 72 hours
Experimental: as §2, §3

[2] = system: primary CD3+ T lymphocytes; experiment: Mixed-cell assay, T lymphocytes in mixed PBMC population by flow cytometry; conditions: up to 50 μM; healthy, PV and SLE plasma; FIG. 5F
Experimental: as §1
(§4) In addition, the effect of OTG177 on B and T lymphocytes was examined by first gating all PBMCs by forward scattering (FSC) versus side scattering (SSC) and isolating the low SSC and high FSC population (FIG. 5C), gating on this selection, the populations of segregated based on their staining to CD19 (red) and CD3 antibodies (green) (FIG. 5D).

[3] = system: primary CD19+ B lymphocytes; experiment: Mixed-cell assay, B lymphocytes in mixed PBMC population by flow cytometry; conditions: FIG. 5E; for suppression of B cell proliferation in mixed PBMC population: 1 μM to 50 μM range
Experimental: as §1, §4

With `C[C@H](NC(=O)CCC(=O)O)C(=O)N[C@@H](C)C(=O)N[C@@H](Cc1ccccc1)C(=O)Nc1ccc2c(c1)COP(=O)(OC[C@H]1O[C@@H](n3cnc(C(N)=O)n3)[C@H](O)[C@@H]1O)O2` (stereo partly drawn) [OTG177, 4-[[(1S)-2-[[(1S)-2-[[(1S)-1-benzyl-2-[[2-[[(2R,3S,4R,5R)-5-(3-carbamoyl-1,2,4-triazol-1-yl)-3,4-dihydroxy-tetrahydrofuran-2-yl]methoxy]-2-oxo-4H-1,3,2benzodioxaphosphinin-6-yl]amino]-2-oxo-ethyl]amino]-1-methyl-2-oxo-ethyl]amino]-1-methyl-2-oxo-ethyl]amino]-4-oxo-butanoic Acid] the “effect on PBMC composition (% granulocytes, monocytes, lymphocytes)” value [1] was “not affected; also recorded: does not have obvious effects”, the “antiproliferative activity in B cells” value (CD19+ primary B cells; 10% flaring pemphigus vulgaris donor's plasma, FIG. 4C) was “strong antiproliferative activity” and the “antiproliferative activity in B cells” value (CD19+ primary B cells; 10% healthy donor's plasma, FIG. 4B) was “did not exhibit detectable antiproliferative activity”. The “antiproliferative activity in T cells” value (CD3+ primary T cells; 10% flaring pemphigus vulgaris donor's plasma, FIG. 4E) was “did not exhibit antiproliferative activity”, the “antiproliferative activity in T cells” value (CD3+ primary T cells; 10% healthy donor's plasma, FIG. 4D) was “did not exhibit antiproliferative activity” and the “effect on T cells in mixed PBMC population” value [2] was “not affected; also recorded: no obvious effect”. For the same molecule, the “suppression of B cell proliferation in mixed PBMC population” value ([3]; stimulated with PV plasma) was “dose-dependent suppression; also recorded: suppressive effect”, the “suppression of B cell proliferation in mixed PBMC population” value ([3]; stimulated with SLE plasma) was “dose-dependent suppression; also recorded: suppressive effect” and the “effect on B cells in mixed PBMC population” value ([3]; stimulated with healthy plasma, 1, 10, 50 μM) was “not affected”.
